SMILES strings stand for the structures. Where “and” joins values, the source holds several entries; their conditions need not be identical. Equal entries are not always repeated. Inconclusive results are not listed. Calls of active or inactive are those of the source.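 The calls were made as follows: active = inhibition with a half-effect concentration no higher than twice the top valid dose tested; inconclusive = flat fit inhibiting 30 to 70%, or a poor fit; inactive = effect in the wrong direction, plus the rest.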

Tested on in one assay: not listed separately
Briefly: antifungal activity under osmotic support – alamar blue, sorbitol added, dry powder, counter-screen for C. neoformans cell wall antifungals, dose response (AID 743123). The settings on record: C. neoformans, alamar blue, sorbitol counter-screen, 24 h; at 35 µM (top of the series). A general note: Resazurin is reduced to fluorescent resorufin, in cell work by metabolically active cells.
In the case of `Cc1cccc(OCCn2c(=S)[nH]c3cc(C(F)(F)F)ccc32)c1`, the activity change, negative = inhibition was -32% (inactive). Still for that read-out and setting: then `Cc1ccc(OCCn2c(C)nc3ccccc32)cc1`, with -59.3% (inactive); and `O=c1[nH]c2ccccc2n1CCOc1ccccc1`, with -36.6% (inactive). The same measure, in the same setting: under `c1ccc(OCCn2cnc3ccccc32)cc1` stands -38.4% (inactive); under `CCOC(=O)c1c(-c2ccc(F)cc2)csc1NC(=O)CN1CCN(C)CC1`, -15.2% (inactive).

The subject of a further assay is C. neoformans, alamar blue, sorbitol counter-screen, 24 h. The assay is described as above.
Conditions: not given
For `CCOc1ccc(OCCn2c(=S)[nH]c3ccccc32)cc1`, the AC50 was 24.1 µM. Take `Cc1ccc(OCCn2c(=S)[nH]c3ccccc32)c(C(C)C)c1`: the AC50 is 8.54 µM and 9.18 µM. On the same count and under the same terms, under `Cc1ccccc1OCCn1c(=S)[nH]c2ccccc21` stands 9.99 µM. On to `Cc1ccc(C(C)C)c(OCCn2c(=S)[nH]c3ccccc32)c1`, for which the concentration at half-maximal activity (AC50) was 10.1 µM.

With `CCOC(=O)c1c(-c2ccc(F)cc2)csc1NC(=O)CN1CCN(CC)CC1`, the AC50 is 36.1 µM. The same measure, in the same setting: then `S=c1[nH]c2cccc(Cl)c2n1CCOc1ccccc1`, with 11.6 µM.

With `CCOC(=O)c1c(NC(=O)CNCCN(C)C)sc(C)c1-c1ccccc1`, the half-maximal activity concentration (AC50) was 1.09 µM.

Regarding `CCOC(=O)c1c(NC(=O)CN2CCN(C)CC2)sc(C)c1-c1ccc(C)cc1`, the concentration at half-maximal activity (AC50) is 16.9 µM. On to `COC(=O)C1=C(C)N(Cc2ccccc2)C(=S)NC1c1ccc(Br)cc1` (stereo not given), for which the AC50 was 9.1 µM. On the same count and under the same terms, then `COC(=O)C1=C(C)N(Cc2ccc(Br)cc2)C(=S)NC1c1ccc(F)cc1` (stereo not given), with 5.99 µM; and `CCOC(=O)c1c(-c2ccc(-c3ccccc3)cc2)csc1NC(=O)CNCCN(C)C`, with 19.9 µM. Turning to `COC(=O)C1=C(C)N(Cc2ccc(F)cc2)C(=S)NC1c1cccc(F)c1` (stereo not given), the concentration at half-maximal activity (AC50) was 24.2 µM. Still for that read-out and setting: under `S=c1[nH]c2ccccc2n1CCOc1ccc(Cl)cc1` stands 14.7 µM; under `Cc1ccc(OCCn2c(SCCO)nc3ccccc32)c(C(C)C)c1`, 7.62 µM; under `CCOC(=O)c1c(-c2ccc(C(C)(C)C)cc2)csc1NC(=O)CN1CCN(CC)CC1`, 14.6 µM. As for `COC(=O)C1=C(C)N(Cc2ccc(Cl)cc2)C(=S)NC1c1ccc(Br)cc1` (stereo not given), the concentration at half-maximal activity (AC50) was 3.11 µM. On the same count and under the same terms, then `Cc1ccc2c(c1)[nH]c(=S)n2CCOc1ccccc1`, with 27.1 µM. The same measure, in the same setting: under `CCOC(=O)c1c(-c2ccc(C(C)(C)C)cc2)csc1NC(=O)CN1CCN(C)CC1` stands 13.7 µM; under `Fc1ccccc1OCCn1c(=S)[nH]c2ccccc21`, 36.2 µM. Same read-out and setting: under `Cc1ccc(OCCn2cnc3ccccc32)cc1` stands 7.76 µM; under `S=c1[nH]c2ccccc2n1CCOc1ccccc1`, 28.5 µM; under `Cc1ccc(OCCn2c(=S)[nH]c3ccccc32)cc1`, 10.9 µM. Turning to `CCOC(=O)c1c(-c2ccc(OC)cc2)csc1NC(=O)CN(C)CC(=O)N(C)C`, the half-maximal activity concentration (AC50) is 13.9 µM. Turning to `Fc1cccc2c1[nH]c(=S)n2CCOc1ccccc1`, the concentration at half-maximal activity (AC50) is 31.9 µM. Same read-out and setting: under `COC(=O)C1=C(C)N(Cc2ccc(Br)cc2)C(=S)NC1c1ccc(OC)cc1` (stereo not given) stands 23.9 µM.

By AC50 is commonly meant the concentration at which the activity in the assay is half-maximal.

The record behind these values is PubChem BioAssay AID743123 (Broad Institute, 2013).
